# Results taken from paper PMC8958504 (Journal of Medicinal Chemistry, 2022).
# Entries after “also recorded” stand apart in the source; their conditions may differ.
# Assays:
# [1] = in vitro; assay type: in vitro ADME
# [2] = system: HO-1; assay: Western blotting of HO-1 in hippocampal slices exposed to OA; assay type: cell-based, mouse; conditions: hippocampal slices treated with OA
# Description: (§1) As iNOS can be produced through the NF-κB (nuclear factor kappa-light-chain-enhancer of activated B cells) pathway, we analyzed the levels of p65, one of the components that form the NF-κB transcription factor family.[82] […] We also measured HO-1, an inducible enzyme transcribed by NRF2, known for its anti-inflammatory, antioxidant, and neuroprotective effects. […] NRF2 and NF-κB signaling pathways cooperate to maintain the physiological homeostasis of cellular redox status and to regulate the cellular response to stress and inflammation.[19],[83] […] This last mechanism could be related to our resveratrol-based MTDL 4e.
# (§2) After acute treatment, the hippocampal slices were lysed in a cold AKT lysis buffer (137 mM NaCl, 20 mM NaF, 10% glycerol, 20 mM Tris–HCl, 1% Nonidet P-40, 1 μg/mL leupeptin, 1 mM phenylmethylsulfonylfluoride, 1 mM sodium pyrophosphate, and 1 mM Na3VO4, pH 7.5). The total protein in each sample was quantified using the Pierce BCA protein kit (Thermo Fisher). 20 μg of protein was resolved by sodium dodecyl sulfate polyacrylamide gel electrophoresis (SDS-PAGE) and transferred to Immobilon-P PVDF membranes (Millipore Corp.). […] The membranes were washed, incubated with ECL WB Kit (GE Healthcare, Amersham), and exposed using a ChemiDoc MP system (Bio-Rad Laboratories) for the visualization of the specific bands, which were then analyzed with Fiji software.
# [3] = system: mice hippocampal organotypic cultures; assay: Organotypic hippocampal culture, chronic OA treatment; assay type: cell-based, mouse; conditions: 1 μM, OA 10 nM, 72 h
# Procedure: 6–10 days old mice (C57BL/6j) were sacrificed, and hippocampi were carefully removed in Hank’s balanced salt solution (HBBS). 300 μm slices were cut and placed in 0.4 μm culture inserts (Merck-Millipore, Germany) and stabilized for 24 h at 37 °C in neurobasal media (Gibco, Invitrogen) supplemented with 10% FBS (Gibco, Invitrogen). […] Finally, cell death and ROS production were determined with the fluorescent probes PI (1 μg/mL) and H2DCFDA (10 μg/mL), respectively.
# (§3) Fluorescence from whole slices was measured as the mean intensity with an inverted Nikon eclipse T2000-U microscope (Nikon Instruments). […] The results were normalized to the basal condition, which was considered as 100%. Image analysis was performed using Fiji software.
# [4] = In vitro glutathione conjugation (LC-IT-MS); assay type: in vitro ADME; conditions: 100 μM, GSH 1 mM, with or without GST, 37 °C, 1 h
# Procedure: As the control, nonenzymatic reaction (mixture lacking GST) was also performed.
# The reaction was maintained at 37 °C for 1 h. As a control, the nonenzymatic reaction mixture (mixture lacking GST) was incubated for 1 h at 37 °C. The reactions were stopped by adding 100 μL of 20% trifluoroacetic acid. The samples were prepared for analysis by adding 400 μL of a 50:50 mixture of MeOH/CH3CN. The reaction mixtures were analyzed using an API QSTAR pulsar I LC–MS/MS system (Applied Biosystems, Madrid, Spain) equipped with an electrospray ionization source and connected to a LC system 1100 series (Agilent Technologies, Madrid, Spain). […] The LC-IT-MS was operated in the positive ion mode.
# [5] = system: iNOS; assay: Western blotting of iNOS in hippocampal slices exposed to OA; assay type: cell-based, mouse; conditions: hippocampal slices treated with OA
# Description: as §1, §2
# [6] = system: mouse hippocampal slices; conditions: 1 μM, OA 1 μM, 6 h
# Procedure: Once the treatment was ended, the cell viability was measured by the MTT method, cell death with the fluorescent probe PI (1 μg/mL), and ROS production with the fluorescent probe H2DCFDA (10 μL/mL).
# as §3
# [7] = system: NRF2-ARE signaling pathway; assay: cells; assay type: cell-based; conditions: concentration required to double luciferase activity, AREc32 cells, 24 h
# [8] = system: adult mice NSCs; assay: Neurogenic studies in SGZ-derived neurospheres; assay type: cell-based, mouse; conditions: 10 μM
# Procedure: Adult mice NSCs were isolated from SGZ of the dentate gyrus of the hippocampus and grown as free-floating neurospheres (NS).[72],[78] The neurogenic potential of each compound was determined using fluorescence confocal microscopy by quantifying the expression of two well-known neuronal markers: human β-III-tubulin (TuJ-1 clone) and microtubule-associated protein 2 (MAP-2). TuJ-1 is expressed in immature neurons, whereas the expression of MAP-2 indicates a consolidated mature neuronal stage.[79] Given that neurogenesis involves not only the proliferation of NSC but also the migration of newly generated cells, the greatest migration distance promoted by each compound was also measured (Figure 8).
# Adult male C57BL/6 mice (3 months old) were used in order to determine neurogenesis activity. […] DAPI staining was used as a nuclear marker. Fluorescent representative images were acquired with a Nikon fluorescence microscope 90i coupled to a digital camera Qi. The microscope configuration was adjusted to produce the optimum signal-to-noise ratio. […] Quantification was undertaken using the image analySIS software (Soft Imaging System Corp., Münster, Germany) and normalized to total nuclei (DAPI-stained). The intensity of immunostaining of neurites from TuJ1-labeled cells and the number of MAP-2-positive cells were estimated from nine neurospheres per condition over three independent experiments. The outgrowth of the neurosphere cells was examined under a phase-contrast microscope and the farthest distance of cell migration was calculated from the edge of the sphere. At least 10 plated neurospheres per treatment were analyzed.
structure (smiles),measurement,setting,value
"C#CCn1nc(/C=C/c2ccc(OC)cc2)oc1=O [4e, 5-[(E)-2-(4-Methoxyphenyl)ethenyl]-3-(prop-2-yn-1-yl)-1,3,4-oxadiazol-2(3H)-one]","Papp at 240 min, 100 μg mL^–1","[1]; PAMPA, pH 7.4, class from PAMPA-BBB Pe, read-out: CNS-permeability prediction",> 4 ×10⁻⁶ cm/s
same,"PAMPA-BBB (Pe, 10^–6 cm s^–1)","[1]; porcine brain lipid, PBS/EtOH (70:30), 240 min, 25 °C",8.0 ± 0.5 10^–6 cm s^–1
same,HO-1 level,[2],further increased
same,ROS production (H2DCFDA),[3],significantly decrease ROS production to basal levels; also recorded: significantly reduced ROS production
same,cell death (PI mean intensity),[3],reduced hippocampal death with a statistical trend (p = 0.07); also recorded: reduce cell death; although the differences were not statistically significant
same,GSH adduct formation,[4],no peaks corresponding to GS-4e adducts were found
same,iNOS level,[5],reduced to basal levels
same,ROS production (H2DCFDA),[6],reduced ROS production to basal levels
same,cell viability (MTT),[6],significantly increased the cell viability to almost basal levels
same,"NRF2 (CD, μM)",[7],9.83 ± 0.6 µM
same,TuJ-1 and MAP-2 marked cells,[8],clearly increased; also recorded: highest expression of young cells (TuJ-1) and mature neurons (MAP-2)
same,cell migration distance,[8],extended; also recorded: greatest distance of cell migration
